In US20240279214A1, “ALPHA4 BETA7 INEGRIN ANTAGONISTS AND USES THEREOF” (XinThera, Inc., priority 2022, published 2024):

Target: T1, a4b7 integrin interaction with MadCAM-1 (Homo sapiens, UniProt P13612+P26010)
T1 construct: capture of a4b7 integrin expressing cells, RPMI8866; endogenous in cells; host or cells: RPMI8866
T1 sequence (P13612 34-1032): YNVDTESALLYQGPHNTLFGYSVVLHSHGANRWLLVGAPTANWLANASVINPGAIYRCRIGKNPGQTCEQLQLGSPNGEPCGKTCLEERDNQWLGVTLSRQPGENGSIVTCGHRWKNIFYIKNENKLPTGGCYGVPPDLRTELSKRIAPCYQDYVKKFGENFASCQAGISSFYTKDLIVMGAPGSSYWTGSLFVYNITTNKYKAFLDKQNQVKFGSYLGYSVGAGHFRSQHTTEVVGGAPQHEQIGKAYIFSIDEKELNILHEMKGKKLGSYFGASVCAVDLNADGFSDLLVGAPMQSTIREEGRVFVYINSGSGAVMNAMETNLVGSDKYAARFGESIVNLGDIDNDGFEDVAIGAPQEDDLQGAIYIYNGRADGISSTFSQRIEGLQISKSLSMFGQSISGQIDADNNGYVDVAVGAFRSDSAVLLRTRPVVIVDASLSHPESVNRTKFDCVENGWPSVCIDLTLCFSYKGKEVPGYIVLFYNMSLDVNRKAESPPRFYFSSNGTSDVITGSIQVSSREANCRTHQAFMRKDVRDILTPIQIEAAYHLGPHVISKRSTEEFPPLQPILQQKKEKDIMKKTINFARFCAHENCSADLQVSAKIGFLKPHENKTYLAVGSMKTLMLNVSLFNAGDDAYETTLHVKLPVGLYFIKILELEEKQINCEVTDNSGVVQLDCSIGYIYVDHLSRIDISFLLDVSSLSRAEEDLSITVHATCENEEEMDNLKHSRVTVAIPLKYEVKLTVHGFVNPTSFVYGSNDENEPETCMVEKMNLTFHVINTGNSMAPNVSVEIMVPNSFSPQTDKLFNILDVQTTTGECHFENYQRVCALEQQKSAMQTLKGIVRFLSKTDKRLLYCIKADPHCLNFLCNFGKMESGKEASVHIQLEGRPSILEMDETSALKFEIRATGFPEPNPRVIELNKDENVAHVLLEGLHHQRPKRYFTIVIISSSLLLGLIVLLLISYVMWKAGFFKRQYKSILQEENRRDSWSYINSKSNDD
T1 sequence (P26010 20-798): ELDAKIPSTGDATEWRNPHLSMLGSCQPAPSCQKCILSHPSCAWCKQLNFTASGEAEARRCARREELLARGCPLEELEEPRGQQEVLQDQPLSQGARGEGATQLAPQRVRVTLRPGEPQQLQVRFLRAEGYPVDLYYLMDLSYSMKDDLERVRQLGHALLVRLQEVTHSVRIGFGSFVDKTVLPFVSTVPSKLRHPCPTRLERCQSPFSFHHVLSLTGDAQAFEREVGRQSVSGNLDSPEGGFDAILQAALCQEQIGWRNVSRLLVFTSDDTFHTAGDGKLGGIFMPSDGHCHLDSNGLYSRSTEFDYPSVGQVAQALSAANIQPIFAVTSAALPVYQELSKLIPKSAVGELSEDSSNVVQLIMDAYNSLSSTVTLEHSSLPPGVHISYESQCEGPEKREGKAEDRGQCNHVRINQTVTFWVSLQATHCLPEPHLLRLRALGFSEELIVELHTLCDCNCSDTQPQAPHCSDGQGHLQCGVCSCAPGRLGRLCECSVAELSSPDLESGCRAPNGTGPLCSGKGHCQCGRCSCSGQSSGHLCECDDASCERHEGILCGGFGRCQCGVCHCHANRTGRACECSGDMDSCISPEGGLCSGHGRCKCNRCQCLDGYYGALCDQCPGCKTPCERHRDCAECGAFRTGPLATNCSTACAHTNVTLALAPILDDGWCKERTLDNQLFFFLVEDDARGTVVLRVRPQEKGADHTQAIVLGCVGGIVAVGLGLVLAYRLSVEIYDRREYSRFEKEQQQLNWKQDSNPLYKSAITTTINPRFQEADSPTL
Experiment: a4b7 Cell Capture Assay (RPMI8866 cells on MAdCAM-1 Fc coated plates)
Format: cell-based
Settings: 50% human serum, 1 mM MgCl2, 1 hour incubation, CellTiter-Glo luminescence, read-out: a4B7 cell capture assay RMPI8866-MadCAM EC50
Procedure, shortened: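 RPMI8866 cells (1.0×10^6 cells/mL) in 1 mM MgCl2, 25 mM HEPES, 50% human serum were added to plates coated with human MAdCAM-1–IgG1 Fc (1.0 μg/mL) and exposed to compound (9-point, 0.08–1000 nM, 0.1% DMSO) for 1 h at 37 °C. Bound cells were read by CellTiter-Glo luminescence. IC50 came from 4-parameter fit of normalized % inhibition.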

SMILES	EC50
Cc1cc2cc(c1F)[C@H](CC(=O)O)NC(=O)[C@H](n1cc(CCN3CC(F)C3)c(C(F)(F)F)cc1=O)c1cccc(c1)Cc1cccc(C)c1-2 (relative stereo) [Example 2, [(14R*,17S)-19-fluoro-14-{5-[2-(3-fluoroazetidin-1-yl)ethyl]-2-oxo-4-(trifluoromethyl)pyridin-1-yl}-3,20-dimethyl-15-oxo-16-azatetracyclo[16.3.1.1^{9,13}.0^{2,7}]tricosa-1(22),2(7),3,5,9,11,13(23),18,20-nonaen-17-yl]acetic acid]	76 nM
O=C(O)C[C@@H]1NC(=O)[C@@H](n2cc(CCN3CC(F)C3)c(C(F)(F)F)cc2=O)c2cccc(c2)Oc2cccc(Cl)c2-c2cc1c(F)c(C(F)(F)F)c2 (relative stereo) [Example 17, [(14R*,17S)-3-chloro-19-fluoro-14-{5-[2-(3-fluoroazetidin-1-yl)ethyl]-2-oxo-4-(trifluoromethyl)pyridin-1-yl}-15-oxo-20-(trifluoromethyl)-8-oxa-16-azatetracyclo[16.3.1.1^{9,13}.0^{2,7}]tricosa-1(22),2(7),3,5,9,11,13(23),18,20-nonaen-17-yl]acetic acid]	140 nM
Cc1cccc2c1-c1cc(C3CC3)c(F)c(c1)[C@H](CC(=O)O)NC(=O)[C@@H](n1ccc(C(F)(F)F)cc1=O)c1cc(ccc1F)CO2 (single isomer, unassigned) [Example 78]	360 nM
Cc1cc2cc(c1F)[C@H](CC(=O)O)NC(=O)[C@@H](n1cc(CCN3CC(F)C3)c(C(F)(F)F)cc1=O)c1cc(ccc1F)Oc1cc(C(C)(C)O)cc(C)c1-2 (single isomer, unassigned) [Example 48]	0.5 nM
Cc1cc2cc(c1F)[C@H](CC(=O)O)NC(=O)[C@@H](n1cc(CCN3CC(F)C3)c(C(F)(F)F)cc1=O)c1cc(ccc1F)Oc1ccc(F)cc1-2 (single isomer, unassigned) [Example 52]	180 nM
Cc1cccc2c1-c1cc(c(F)c(C(F)(F)F)c1)[C@H](CC(=O)O)NC(=O)[C@@H](n1cc(Cl)c(C(F)(F)F)cc1=O)c1cccc(c1)O2 [Example 39, [(17S)-14-[5-chloro-2-oxo-4-(trifluoromethyl)pyridin-1-yl]-19-fluoro-3-methyl-15-oxo-20-(trifluoromethyl)-8-oxa-16-azatetracyclo[16.3.1.1^{9,13}.0^{2,7}]tricosa-1(22),2(7),3,5,9,11,13(23),18,20-nonaen-17-yl]acetic acid]	> 100 nM
Cc1cc2cc(c1F)[C@H](CC(=O)O)NC(=O)[C@@H](n1ccc(C(F)(F)F)c(Cl)c1=O)c1cc(ccc1F)COc1cccc(C)c1-2 (relative stereo) [Example 79, [(15R*,18S)-15-[3-chloro-2-oxo-4-(trifluoromethyl)pyridin-1-yl]-13,20-difluoro-3,21-dimethyl-16-oxo-8-oxa-17-azatetracyclo[17.3.1.1^{10,14}.0^{2,7}]tetracosa-1(23),2(7),3,5,10,12,14(24),19,21-nonaen-18-yl]acetic acid]	> 100 nM
Cc1cc2cc(c1F)[C@H](CC(=O)O)NC(=O)[C@@H](n1cc(CCN3CC(F)C3)c(C(F)(F)F)cc1=O)c1cc(ccc1F)Oc1cc(Cl)cc(C)c1-2 (relative stereo) [Example 55, [(14R*,17S)-5-chloro-12,19-difluoro-14-{5-[2-(3-fluoroazetidin-1-yl)ethyl]-2-oxo-4-(trifluoromethyl)pyridin-1-yl}-3,20-dimethyl-15-oxo-8-oxa-16-azatetracyclo[16.3.1.1^{9,13}.0^{2,7}]tricosa-1(22),2(7),3,5,9,11,13(23),18,20-nonaen-17-yl]acetic acid]	4 nM
COC1CN(c2cc(C)c3c(c2)Oc2ccc(F)c(c2)[C@H](n2cc(CCN4CC(F)C4)c(C(F)(F)F)cc2=O)C(=O)N[C@@H](CC(=O)O)c2cc-3cc(C)c2F)C1 (single isomer, unassigned) [Example 41]	21 nM
Cc1cc2cc(c1F)[C@H](CC(=O)O)NC(=O)[C@@H](n1cc(CCN3CC(F)C3)c(C(F)(F)F)cc1=O)c1cc(cc(C(F)(F)F)c1)Oc1cccc(C)c1-2 (relative stereo) [Example 22, [(14R*,17S)-19-fluoro-14-{5-[2-(3-fluoroazetidin-1-yl)ethyl]-2-oxo-4-(trifluoromethyl)pyridin-1-yl}-3,20-dimethyl-15-oxo-11-(trifluoromethyl)-8-oxa-16-azatetracyclo[16.3.1.1^{9,13}.0^{2,7}]tricosa-1(22),2(7),3,5,9,11,13(23),18,20-nonaen-17-yl]acetic acid]	9.9 nM

Second part, the compound after the results:

EC50	SMILES
27 nM	Cc1cc2cc(c1F)[C@H](CC(=O)O)NC(=O)[C@@H](n1cc(CCN3CC(F)C3)c(C(F)(F)F)cc1=O)c1cc(ccc1F)COc1cc(C#N)cc(C)c1-2 (single isomer, unassigned) [Example 54]
990 nM	Cc1ccc2c(c1C)-c1cc(C)c(F)c(c1)[C@H](CC(=O)O)NC(=O)[C@@H](n1cc(CCN3CC(F)C3)c(C(F)(F)F)cc1=O)c1cc(ccc1F)CO2 (relative stereo) [Example 51, [(15R*,18S)-13,20-difluoro-15-{5-[2-(3-fluoroazetidin-1-yl)ethyl]-2-oxo-4-(trifluoromethyl)pyridin-1-yl}-3,4,21-trimethyl-16-oxo-8-oxa-17-azatetracyclo[17.3.1.1^{10,14}.0^{2,7}]tetracosa-1(23),2(7),3,5,10,12,14(24),19,21-nonaen-18-yl]acetic acid]
1.9 nM	Cc1cccc2c1-c1cc(F)c(F)c(c1)[C@H](CC(=O)O)NC(=O)[C@@H](n1cc(CCN3CC(F)C3)c(C(F)(F)F)cc1=O)c1cc(ccc1F)O2 (relative stereo) [Example 31, [(14R*,17S)-12,19,20-trifluoro-14-{5-[2-(3-fluoroazetidin-1-yl)ethyl]-2-oxo-4-(trifluoromethyl)pyridin-1-yl}-3-methyl-15-oxo-8-oxa-16-azatetracyclo[16.3.1.1^{9,13}.0^{2,7}]tricosa-1(22),2(7),3,5,9,11,13(23),18,20-nonaen-17-yl]acetic acid]
7.7 nM	Cc1cccc2c1-c1cc(c(F)c(C(F)(F)F)c1)[C@H](CC(=O)O)NC(=O)[C@@H](n1cc(CCN3CC(F)C3)c(C(F)(F)F)cc1=O)c1cc(ccc1F)CO2 (relative stereo) [Example 35, [(15R*,18S)-13,20-difluoro-15-{5-[2-(3-fluoroazetidin-1-yl)ethyl]-2-oxo-4-(trifluoromethyl)pyridin-1-yl}-3-methyl-16-oxo-21-(trifluoromethyl)-8-oxa-17-azatetracyclo[17.3.1.1^{10,14}.0^{2,7}]tetracosa-1(23),2(7),3,5,10,12,14(24),19,21-nonaen-18-yl]acetic acid]
5.2 nM	Cc1cc2cc(c1F)[C@H](CC(=O)O)NC(=O)[C@@H](n1cc(CCN3CC(F)C3)c(C(F)(F)F)cc1=O)c1cc(ccc1F)COc1cccc(C)c1-2 (relative stereo) [Example 36, [(15R*,18S)-13,20-difluoro-15-{5-[2-(3-fluoroazetidin-1-yl)ethyl]-2-oxo-4-(trifluoromethyl)pyridin-1-yl}-3,21-dimethyl-16-oxo-8-oxa-17-azatetracyclo[17.3.1.1^{10,14}.0^{2,7}]tetracosa-1(23),2(7),3,5,10,12,14(24),19,21-nonaen-18-yl]acetic acid]
